In patent US10597388B2, “Pyridazinone herbicides” (FMC CORPORATION, priority 2014, dated 2020):

How the values were obtained:
Type in all cases: in vivo
[1] = tested on: wheat (Triticum aestivum); assay: Test A greenhouse herbicide test, pre- and postemergence; settings: Postemergence; for Wheat plant response rating: 0 to 100 scale, 0 is no effect, 100 is complete control
How it was run: (§1)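 Visual injury ratings, 0 (no effect) to 100 (complete control), versus untreated plants after roughly 10 d in a greenhouse. Compounds, formulated in a surfactant-containing non-phytotoxic solvent, were sprayed on loam–sand soil after sowing (pre) or on one- to two-leaf plants 2–10 cm tall (post).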

kochia (Kochia scoparia) = assay: as above
How it was run: as §1

[2] = tested on: foxtail, giant (giant foxtail, Setaria faberii); assay: as above
How it was run: as §1

[3] = tested on: pigweed (Amaranthus retroflexus); assay: as above
How it was run: as §1

[4] = tested on: ragweed (common ragweed, Ambrosia elatior); assay: as above
How it was run: as §1

[5] = tested on: blackgrass (Alopecurus myosuroides); assay: Test C greenhouse herbicide test, pre- and postemergence
Source text: (§2) Seeds of plant species selected from blackgrass (Alopecurus myosuroides), ryegrass, Italian (Italian ryegrass, Lolium multiflorum), wheat (winter wheat, Triticum aestivum), galium (catchweed bedstraw, Galium aparine), corn (Zea mays), large crabgrass, large (large crabgrass, Digitaria sanguinalis), foxtail, giant (giant foxtail, Setaria faberii), johnsongrass (Sorghum halepense), lambsquarters (Chenopodium album), morningglory (Ipomoea coccinea), nutsedge, yellow (yellow nutsedge, Cyperus esculentus), pigweed (Amaranthus retroflexus), ragweed (common ragweed, Ambrosia elatior), soybean (Glycine max), barnyardgrass (Echinochloa crus-galli), oilseed rape (Brassica napus), waterhemp (common waterhemp, Amaranthus rudis), and velvetleaf (Abutilon theophrasti) were planted into a blend of loam soil and sand and treated preemergence with test chemicals formulated in a non-phytotoxic solvent mixture which included a surfactant.
(§3) At the same time, plants selected from these crop and weed species and also chickweed (common chickweed, Stellaria media), kochia (Kochia scoparia), and oat, wild (wild oat, Avena fatua), were planted in pots containing Redi-Earth® planting medium (Scotts Company, 14111 Scottslawn Road, Marysville, Ohio 43041) comprising spaghnum peat moss, vermiculite, wetting agent and starter nutrients and treated with postemergence applications of test chemicals formulated in the same manner. Plants ranged in height from 2 to 18 cm (1- to 4-leaf stage) for postemergence treatments. Treated plants and controls were maintained in a greenhouse for 13 to 15 d, after which time all species were compared to controls and visually evaluated. Plant response ratings, summarized in Table C, are based on a scale of 0 to 100 where 0 is no effect and 100 is complete control. A dash (-) response means no test result.

[6] = tested on: ryegrass, Italian (Italian ryegrass, Lolium multiflorum); assay: as above
Source text: as §2, §3

[7] = tested on: velvetleaf (Abutilon theophrasti); assay: as above
Source text: as §2, §3

[8] = tested on: pigweed (Amaranthus retroflexus); assay: as above
Source text: as §2, §3

[9] = tested on: morningglory (Ipomoea coccinea); assay: as above
Source text: as §2, §3

corn (Zea mays) = assay: as above
Source text: as §2, §3

[10] = Postemergence, 1000 g ai/ha, 0 to 100 scale, 0 is no effect, 100 is complete control
[11] = Preemergence, 1000 g ai/ha, 0 to 100 scale, 0 no effect, 100 complete control
[12] = Postemergence, 31 g ai/ha, 0 to 100 scale (0 no effect, 100 complete control)
[13] = Postemergence, 125 g ai/ha, scale 0 to 100, 0 is no effect, 100 is complete control
[14] = Postemergence, 250 g ai/ha, scale 0 to 100, 0 no effect, 100 complete control, 13 to 15 d
[15] = Preemergence, 31 g ai/ha, scale 0 to 100, 0 is no effect, 100 is complete control
[16] = Preemergence, 62 g ai/ha, scale 0 to 100, 0 is no effect, 100 is complete control
[17] = Preemergence, 125 g ai/ha, scale 0 to 100, 0 is no effect, 100 is complete control
[18] = Preemergence, 250 g ai/ha, scale 0 to 100, 0 no effect, 100 complete control
[19] = postemergence, 62 g ai/ha, scale 0 to 100, 0 no effect, 100 complete control
[20] = Postemergence, 125 g ai/ha, visual rating after approx. 10 d, 0 to 100 scale (0 no effect, 100 complete control)
[21] = Postemergence, 500 g ai/ha, 0 to 100 scale, 0 is no effect, 100 is complete control
[22] = Preemergence, 125 g ai/ha, 0 to 100 scale where 0 is no effect and 100 is complete control
[23] = Preemergence, 500 g ai/ha, 0 to 100 scale, 0 no effect, 100 complete control

Structure (SMILES): CCc1ccc2ccccc2c1-c1c(O)c(C)nn(C)c1=O [Compound 32]
- Wheat plant response rating ([1]; 1000 g ai/ha): 100
- Kochia plant response rating (kochia (Kochia scoparia); [10]): 100
- Plant response rating, Kochia (kochia (Kochia scoparia); [11]): 100
- Foxtail, Giant plant response rating [2, 10]: 90
- Plant response rating, Foxtail, Giant [2, 11]: 100
- Pigweed plant response rating [3, 10]: 100
- Plant response rating, Pigweed [3, 11]: 100
- Ragweed plant response rating [4, 10]: 100
- Plant response rating, Ragweed [4, 11]: 90
- Blackgrass plant response rating [5, 12]: 30
- Plant response rating, Blackgrass [5, 13]: 80
- Plant response rating, Blackgrass [5, 14]: 80
- Plant response rating, Blackgrass [5, 15]: 70
- Plant response rating, Blackgrass [5, 16]: 90
- Plant response rating, Blackgrass [5, 17]: 90
- Blackgrass plant response rating [5, 18]: 90
- Blackgrass plant response rating [5, 19]: 60
- Ryegrass, Italian plant response rating [6, 12]: 85
- Plant response rating, Ryegrass, Italian [6, 13]: 90
- Plant response rating, Ryegrass, Italian [6, 14]: 95
- Plant response rating, Ryegrass, Italian [6, 15]: 85
- Plant response rating, Ryegrass, Italian [6, 16]: 90
- Plant response rating, Ryegrass, Italian [6, 17]: 95
- Ryegrass, Italian plant response rating [6, 18]: 95
- Ryegrass, Italian plant response rating [6, 19]: 90
- Velvetleaf plant response rating [7, 12]: 10
- Plant response rating, Velvetleaf [7, 13]: 85
- Plant response rating, Velvetleaf [7, 14]: 85
- Plant response rating, Velvetleaf [7, 16]: 85
- Plant response rating, Velvetleaf [7, 17]: 85
- Velvetleaf plant response rating [7, 18]: 90
- Velvetleaf plant response rating [7, 19]: 70
- Pigweed plant response rating [8, 12]: 75
- Plant response rating, Pigweed [8, 13]: 90
- Plant response rating, Pigweed [8, 14]: 95
- Plant response rating, Pigweed [8, 15]: 100
- Plant response rating, Pigweed [8, 16]: 100
- Plant response rating, Pigweed [8, 17]: 100
- Pigweed plant response rating [8, 18]: 100
- Pigweed plant response rating [8, 19]: 90
- Morningglory plant response rating [9, 12]: 90
- Plant response rating, Morningglory [9, 13]: 100
- Plant response rating, Morningglory [9, 14]: 100
- Plant response rating, Morningglory [9, 15]: 80
- Plant response rating, Morningglory [9, 16]: 90
- Plant response rating, Morningglory [9, 17]: 98
- Morningglory plant response rating [9, 18]: 98
- Morningglory plant response rating [9, 19]: 100
- Corn plant response rating (corn (Zea mays); [12]): 0
- Plant response rating, Corn (corn (Zea mays); [13]): 30
- Plant response rating, Corn (corn (Zea mays); [14]): 40
- Plant response rating, Corn (corn (Zea mays); [15]): 0
- Plant response rating, Corn (corn (Zea mays); [16]): 0
- Plant response rating, Corn (corn (Zea mays); [17]): 0
- Corn plant response rating (corn (Zea mays); [18]): 35
- Corn plant response rating (corn (Zea mays); [19]): 20

Structure (SMILES): Cc1cc2ccccc2c(-c2c(O)c(C)nn(C)c2=O)c1C [Compound 34]
- Plant response rating, Wheat ([1]; 125 g ai/ha, 0 to 100 scale where 0 is no effect and 100 is complete control): 20
- Wheat plant response rating ([1]; 500 g ai/ha): 40
- Plant response rating, Kochia (kochia (Kochia scoparia); [20]): 70
- Kochia plant response rating (kochia (Kochia scoparia); [21]): 80
- Kochia plant response rating (kochia (Kochia scoparia); [22]): 30
- Plant response rating, Kochia (kochia (Kochia scoparia); [23]): 60
- Plant response rating, Foxtail, Giant [2, 20]: 30
- Foxtail, Giant plant response rating [2, 21]: 90
- Foxtail, Giant plant response rating [2, 22]: 40
- Plant response rating, Foxtail, Giant [2, 23]: 90
- Plant response rating, Pigweed [3, 20]: 90
- Pigweed plant response rating [3, 21]: 90
- Pigweed plant response rating [3, 22]: 90
- Plant response rating, Pigweed [3, 23]: 100
- Plant response rating, Ragweed [4, 20]: 90
- Ragweed plant response rating [4, 21]: 100
- Ragweed plant response rating [4, 22]: 80
- Plant response rating, Ragweed [4, 23]: 90
- Blackgrass plant response rating [5, 12]: 10
- Plant response rating, Blackgrass [5, 13]: 35
- Plant response rating, Blackgrass [5, 14]: 60
- Plant response rating, Blackgrass [5, 15]: 5
- Plant response rating, Blackgrass [5, 16]: 50
- Plant response rating, Blackgrass [5, 17]: 85
- Blackgrass plant response rating [5, 18]: 90
- Blackgrass plant response rating [5, 19]: 10
- Ryegrass, Italian plant response rating [6, 12]: 80
- Plant response rating, Ryegrass, Italian [6, 13]: 90
- Plant response rating, Ryegrass, Italian [6, 14]: 90
- Plant response rating, Ryegrass, Italian [6, 15]: 45
- Plant response rating, Ryegrass, Italian [6, 16]: 85
- Plant response rating, Ryegrass, Italian [6, 17]: 85
- Ryegrass, Italian plant response rating [6, 18]: 95
- Ryegrass, Italian plant response rating [6, 19]: 80
- Velvetleaf plant response rating [7, 12]: 50
- Plant response rating, Velvetleaf [7, 13]: 100
- Plant response rating, Velvetleaf [7, 14]: 90
- Plant response rating, Velvetleaf [7, 16]: 80
- Plant response rating, Velvetleaf [7, 17]: 85
- Velvetleaf plant response rating [7, 18]: 98
- Velvetleaf plant response rating [7, 19]: 80
- Pigweed plant response rating [8, 12]: 90
- Plant response rating, Pigweed [8, 13]: 80
- Plant response rating, Pigweed [8, 14]: 98
- Plant response rating, Pigweed [8, 15]: 100
- Plant response rating, Pigweed [8, 16]: 100
- Plant response rating, Pigweed [8, 17]: 100
- Pigweed plant response rating [8, 18]: 100
- Pigweed plant response rating [8, 19]: 85
- Morningglory plant response rating [9, 12]: 85
- Plant response rating, Morningglory [9, 13]: 95
- Plant response rating, Morningglory [9, 14]: 98
- Plant response rating, Morningglory [9, 15]: 70
- Plant response rating, Morningglory [9, 16]: 80
- Plant response rating, Morningglory [9, 17]: 85
- Morningglory plant response rating [9, 18]: 95
- Morningglory plant response rating [9, 19]: 98
- Corn plant response rating (corn (Zea mays); [12]): 0
- Plant response rating, Corn (corn (Zea mays); [13]): 5
- Plant response rating, Corn (corn (Zea mays); [14]): 5
- Plant response rating, Corn (corn (Zea mays); [15]): 0
- Plant response rating, Corn (corn (Zea mays); [16]): 0
- Plant response rating, Corn (corn (Zea mays); [17]): 10
- Corn plant response rating (corn (Zea mays); [18]): 0
- Corn plant response rating (corn (Zea mays); [19]): 5
